Measurements from PubChem BioAssay AID330 (DTP/NCI, 2004).
Several values for one entry are separate records, joined by “and”; a condition that tells them apart may be missing. Equal entries are not always repeated. Toxic doses and inconclusive results are not listed. Square brackets hold non-standard residues; d marks the D form. Peptide text beside a SMILES is read from it. * marks the point of attachment. ξ: configuration not given here. Cbz = O=C(OCc1ccccc1)*; Boc = CC(C)(C)OC(=O)*; ξI = CCC(C)C(N)C(=O)O; NHNH2 = NN*

Test system: P388 leukemia ip, CD2F1 mice, survival T/C
Test: NCI In Vivo Anticancer Drug Screen. Data for tumor model P388 Leukemia (intraperitoneal) in CD2F1 (CDF1) mice
Details: endpoint: median survival time, higher = longer survival
Procedure, shortened: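 Mice carrying the transplanted tumor received test compound or vehicle. Survival was recorded in each group, and the value is the treated-group measurement divided by that of the vehicle-treated control group.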

[1] = dose: 50.0 mg/kg/injection, schedule: Q01DX005 (ip), vehicle: saline with Tween-80
[2] = dose: 100.0 mg/kg/injection, schedule: Q01DX005 (ip), vehicle: saline with Tween-80
[3] = dose: 200.0 mg/kg/injection, schedule: Q01DX005 (ip), vehicle: saline with Tween-80
[4] = dose: 100.0 mg/kg/injection, schedule: Q04DX003 (ip), vehicle: saline with Tween-80
[5] = dose: 200.0 mg/kg/injection, schedule: Q04DX003 (ip), vehicle: saline with Tween-80
[6] = dose: 100.0 mg/kg/injection, schedule: Q01DX001 (ip), vehicle: Klucel (hydroxypropylcellulose) (HPC)
[7] = dose: 50.0 mg/kg/injection, schedule: Q01DX005 (ip), vehicle: Klucel (hydroxypropylcellulose) (HPC)
[8] = dose: 100.0 mg/kg/injection, schedule: Q04DX003 (ip), vehicle: saline
[9] = dose: 200.0 mg/kg/injection, schedule: Q04DX003 (ip), vehicle: saline
[10] = dose: 25.0 mg/kg/injection, schedule: Q01DX009 (ip), vehicle: saline with Tween-80
[11] = dose: 50.0 mg/kg/injection, schedule: Q01DX009 (ip), vehicle: saline with Tween-80
[12] = dose: 100.0 mg/kg/injection, schedule: Q01DX009 (ip), vehicle: saline with Tween-80

`COc1ccc(CNCC#N)c(OC)c1` was tested, and the T/C [1] was 97 % of control and the T/C [2] was 100 % of control.
For `CCC(C)C(NC(=O)CNC(=O)CNC(=O)OCc1ccccc1)C(=O)O` (stereo not drawn) (Cbz-Gly-Gly-[ξI]-OH), the T/C [1] was 103 % of control, the T/C [2] was 100 % of control and the T/C [3] was 102 % of control.
`Cc1nsc(N)n1` was tested, and the T/C (dose: 6.25 mg/kg/injection, schedule: Q01DX009 (ip), vehicle: saline) was 100 % of control, the T/C (dose: 6.25 mg/kg/injection, schedule: Q01DX009 (ip), vehicle: suspension in saline) was 94 % of control and the T/C (dose: 12.5 mg/kg/injection, schedule: Q01DX009 (ip), vehicle: saline) was 100 % of control and 98 % of control. The T/C (dose: 12.5 mg/kg/injection, schedule: Q01DX009 (ip), vehicle: suspension in saline) was 101 % of control, the T/C (dose: 25.0 mg/kg/injection, schedule: Q01DX009 (ip), vehicle: saline) was 100 % of control and 98 % of control and the T/C (dose: 25.0 mg/kg/injection, schedule: Q01DX009 (ip), vehicle: suspension in saline) was 102 % of control. For the same compound, the T/C (dose: 50.0 mg/kg/injection, schedule: Q01DX009 (ip), vehicle: saline) was 99 % of control and 98 % of control and the T/C (dose: 50.0 mg/kg/injection, schedule: Q01DX009 (ip), vehicle: suspension in saline) was 103 % of control.
For `CCOC(=O)Nc1cc(Cl)ccc1O`, the T/C [4] was 90 % of control, the T/C [5] was 90 % of control and the T/C (dose: 400.0 mg/kg/injection, schedule: Q04DX003 (ip), vehicle: saline with Tween-80) was 90 % of control.
`O=CNC(Cc1ccc(N(CCCl)CCCl)cc1)C(=O)O` (stereo unspecified) was tested, and the T/C (dose: 6.25 mg/kg/injection, schedule: Q01DX009 (ip), vehicle: saline sonified) was 159 % of control, the T/C (dose: 6.6 mg/kg/injection, schedule: Q04DX003 (ip), vehicle: saline) was 170 % of control and the T/C (dose: 10.0 mg/kg/injection, schedule: Q04DX003 (ip), vehicle: saline) was 160 % of control. For the same compound, the T/C (dose: 12.5 mg/kg/injection, schedule: Q01DX009 (ip), vehicle: saline sonified) was 168 % of control, the T/C (dose: 15.0 mg/kg/injection, schedule: Q04DX003 (ip), vehicle: saline) was 170 % of control and the T/C (dose: 25.0 mg/kg/injection, schedule: Q01DX009 (ip), vehicle: saline sonified) was 213 % of control.
`CC(=O)c1cc2c(cc1I)OCO2` was tested, and the T/C [6] was 101 % of control, the T/C (dose: 200.0 mg/kg/injection, schedule: Q01DX001 (ip), vehicle: Klucel (hydroxypropylcellulose) (HPC)) was 99 % of control and the T/C (dose: 400.0 mg/kg/injection, schedule: Q01DX001 (ip), vehicle: Klucel (hydroxypropylcellulose) (HPC)) was 101 % of control.
For `COc1ccc(C(O)Cc2ccccc2)cc1` (stereo unspecified), the T/C (dose: 31.25 mg/kg/injection, schedule: Q01DX009 (ip), vehicle: saline + Tween-80 + alcohol) was 93 % of control, the T/C (dose: 62.5 mg/kg/injection, schedule: Q01DX009 (ip), vehicle: saline + Tween-80 + alcohol) was 91 % of control and the T/C (dose: 125.0 mg/kg/injection, schedule: Q01DX009 (ip), vehicle: saline + Tween-80 + alcohol) was 91 % of control. For the same compound, the T/C (dose: 250.0 mg/kg/injection, schedule: Q01DX009 (ip), vehicle: saline + Tween-80 + alcohol) was 89 % of control.
For `CC(C)NCCCNCC(=O)Nc1ccc(S(=O)(=O)c2ccc(NC(=O)CNCCCNC(C)C)cc2)cc1`, the T/C (dose: 12.5 mg/kg/injection, schedule: Q01DX005 (ip), vehicle: Klucel (hydroxypropylcellulose) (HPC)) was 104 % of control, the T/C (dose: 25.0 mg/kg/injection, schedule: Q01DX005 (ip), vehicle: Klucel (hydroxypropylcellulose) (HPC)) was 102 % of control and the T/C [7] was 103 % of control.
`C1CC2CC3CCCCN3COC2C1` (stereo unspecified) was tested, and the T/C [8] was 102 % of control and the T/C [9] was 118 % of control.
`CC(C)C(NC(=O)C(Cc1c[nH]c2ccccc12)NC(=O)OC(C)(C)C)C(=O)NN` (stereo not drawn) (Boc-Trp-Val-NHNH2; configuration not given here) was tested, and the T/C (dose: 12.5 mg/kg/injection, schedule: Q01DX009 (ip), vehicle: other) was 98 % of control, the T/C (dose: 25.0 mg/kg/injection, schedule: Q01DX009 (ip), vehicle: other) was 98 % of control and the T/C (dose: 50.0 mg/kg/injection, schedule: Q01DX009 (ip), vehicle: other) was 91 % of control. The T/C (dose: 100.0 mg/kg/injection, schedule: Q01DX009 (ip), vehicle: other) was 89 % of control and the T/C (dose: 200.0 mg/kg/injection, schedule: Q01DX009 (ip), vehicle: other) was 94 % of control.
With `CN(C)CN1CSC(=S)N(CN(C)C)C1` the T/C (dose: 50.0 mg/kg/injection, schedule: Q01DX005 (ip), vehicle: distilled water + alcohol) was 103 % of control, the T/C (dose: 100.0 mg/kg/injection, schedule: Q01DX005 (ip), vehicle: distilled water + alcohol) was 116 % of control and the T/C (dose: 200.0 mg/kg/injection, schedule: Q01DX005 (ip), vehicle: distilled water + alcohol) was 103 % of control.
In the case of `C=C(C)C(=O)OCCOc1ccc(/C=N/N=c2/sc3ccccc3n2C)cc1OC`, the T/C (dose: 50.0 mg/kg/injection, schedule: Q01DX009 (ip), vehicle: Klucel (hydroxypropylcellulose) (HPC)) was 105 % of control, the T/C (dose: 100.0 mg/kg/injection, schedule: Q01DX009 (ip), vehicle: Klucel (hydroxypropylcellulose) (HPC)) was 97 % of control and the T/C (dose: 200.0 mg/kg/injection, schedule: Q01DX009 (ip), vehicle: Klucel (hydroxypropylcellulose) (HPC)) was 108 % of control.
With `C(=Nc1cnc2ccccc2c1)c1ccnc2ccccc12` the T/C (dose: 12.5 mg/kg/injection, schedule: Q01DX009 (ip), vehicle: saline with Tween-80) was 98 % of control, the T/C (dose: 12.5 mg/kg/injection, schedule: Q04DX003 (ip), vehicle: saline with Tween-80) was 107 % of control and the T/C [10] was 98 % of control. The T/C (dose: 25.0 mg/kg/injection, schedule: Q04DX003 (ip), vehicle: saline with Tween-80) was 96 % of control, the T/C [11] was 101 % of control and the T/C (dose: 50.0 mg/kg/injection, schedule: Q04DX003 (ip), vehicle: saline with Tween-80) was 114 % of control. For the same compound, the T/C [12] was 96 % of control and the T/C [4] was 99 % of control.
With `NC(CC1=CS(=O)(=O)c2ccc(Cl)cc21)C(=O)O` (stereo unspecified) the T/C (dose: 25.0 mg/kg/injection, schedule: Q01DX001 (ip), vehicle: Klucel (hydroxypropylcellulose) (HPC)) was 99 % of control, the T/C (dose: 50.0 mg/kg/injection, schedule: Q01DX001 (ip), vehicle: Klucel (hydroxypropylcellulose) (HPC)) was 96 % of control and the T/C [6] was 101 % of control.
In the case of `Cc1cc2sccc2cn1`, the T/C [10] was 100 % of control and the T/C [11] was 100 % of control.
With `Cc1ccccc1N1C(=O)C(C)(C)OC1=S` the T/C [1] was 97 % of control, the T/C [2] was 99 % of control and the T/C [3] was 103 % of control.
With `CC(=O)CCC1=C(O)C(C)=C(C)C(=O)C1=O` the T/C (dose: 60.0 mg/kg/injection, schedule: Q01DX005 (ip), vehicle: Klucel (hydroxypropylcellulose) (HPC)) was 103 % of control, the T/C (dose: 120.0 mg/kg/injection, schedule: Q01DX005 (ip), vehicle: Klucel (hydroxypropylcellulose) (HPC)) was 115 % of control and the T/C (dose: 240.0 mg/kg/injection, schedule: Q01DX005 (ip), vehicle: Klucel (hydroxypropylcellulose) (HPC)) was 109 % of control.
`Cc1cc2c(cc1C)NC1=C(N2)OC(c2cccc(O)c2)C1=O` (stereo unspecified) was tested, and the T/C (dose: 7.5 mg/kg/injection, schedule: Q01DX005 (ip), vehicle: Klucel (hydroxypropylcellulose) (HPC)) was 104 % of control, the T/C (dose: 15.0 mg/kg/injection, schedule: Q01DX005 (ip), vehicle: Klucel (hydroxypropylcellulose) (HPC)) was 101 % of control and the T/C (dose: 30.0 mg/kg/injection, schedule: Q01DX005 (ip), vehicle: Klucel (hydroxypropylcellulose) (HPC)) was 110 % of control.
In the case of `CC1(C)N=C(N)N=C(N)N1c1ccc(OCCOc2ccc(S(=O)(=O)F)cc2)c(Cl)c1`, the T/C (dose: 12.5 mg/kg/injection, schedule: Q04DX003 (ip), vehicle: saline) was 159 % of control, the T/C (dose: 25.0 mg/kg/injection, schedule: Q04DX003 (ip), vehicle: saline) was 181 % of control and 185 % of control and the T/C (dose: 50.0 mg/kg/injection, schedule: Q04DX003 (ip), vehicle: saline) was 181 % of control and 185 % of control. The T/C [4] was 175 % of control, the T/C [8] was 190 % of control and 200 % of control and the T/C (dose: 132.0 mg/kg/injection, schedule: Q04DX003 (ip), vehicle: saline with Tween-80) was 162 % of control. For the same compound, the T/C [5] was 185 % of control and the T/C [9] was 109 % of control.
For `Cc1nc2c(cnn2C)c(=O)n1-c1ccccc1Cl`, the T/C [7] was 103 % of control, the T/C (dose: 100.0 mg/kg/injection, schedule: Q01DX005 (ip), vehicle: Klucel (hydroxypropylcellulose) (HPC)) was 95 % of control and the T/C (dose: 200.0 mg/kg/injection, schedule: Q01DX005 (ip), vehicle: Klucel (hydroxypropylcellulose) (HPC)) was 98 % of control.
In the case of `CC1(C)CC2(C)OC2C2(C1)N=NC(=Nc1ccccc1)O2` (stereo unspecified), the T/C [11] was 105 % of control and 92 % of control, the T/C [12] was 120 % of control and 97 % of control and the T/C (dose: 200.0 mg/kg/injection, schedule: Q01DX009 (ip), vehicle: saline with Tween-80) was 108 % of control.
